PMC2652245 (Cancer research, 2008)

Legend:
[1] = target: T1, ABCG2 (Homo sapiens, UniProt Q9UNQ0)
T1 sequence (Q9UNQ0 1-655): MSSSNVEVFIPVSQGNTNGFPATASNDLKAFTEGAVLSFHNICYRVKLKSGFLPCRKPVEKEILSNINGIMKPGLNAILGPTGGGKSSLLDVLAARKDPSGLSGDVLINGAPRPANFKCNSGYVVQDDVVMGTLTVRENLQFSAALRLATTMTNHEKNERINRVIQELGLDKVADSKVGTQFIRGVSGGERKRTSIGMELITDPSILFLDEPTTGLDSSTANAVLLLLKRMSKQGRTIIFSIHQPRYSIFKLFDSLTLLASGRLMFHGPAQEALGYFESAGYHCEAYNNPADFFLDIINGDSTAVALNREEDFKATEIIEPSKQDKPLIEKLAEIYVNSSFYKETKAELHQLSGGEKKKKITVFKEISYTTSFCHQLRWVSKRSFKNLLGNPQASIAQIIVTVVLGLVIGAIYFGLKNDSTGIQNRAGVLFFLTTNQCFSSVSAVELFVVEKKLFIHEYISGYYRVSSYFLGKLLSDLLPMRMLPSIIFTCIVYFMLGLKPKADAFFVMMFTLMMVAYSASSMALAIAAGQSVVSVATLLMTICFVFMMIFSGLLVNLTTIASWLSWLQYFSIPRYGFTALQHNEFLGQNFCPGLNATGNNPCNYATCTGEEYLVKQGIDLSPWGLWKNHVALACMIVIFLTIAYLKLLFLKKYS

[2] = target: ABCB1 (P-glycoprotein) (Homo sapiens, UniProt P08183); test: competition of […]-IAAP photoaffinity labeling in membrane vesicles; format: binding
Chain of ABCB1 (P-glycoprotein) (P08183 whole entry): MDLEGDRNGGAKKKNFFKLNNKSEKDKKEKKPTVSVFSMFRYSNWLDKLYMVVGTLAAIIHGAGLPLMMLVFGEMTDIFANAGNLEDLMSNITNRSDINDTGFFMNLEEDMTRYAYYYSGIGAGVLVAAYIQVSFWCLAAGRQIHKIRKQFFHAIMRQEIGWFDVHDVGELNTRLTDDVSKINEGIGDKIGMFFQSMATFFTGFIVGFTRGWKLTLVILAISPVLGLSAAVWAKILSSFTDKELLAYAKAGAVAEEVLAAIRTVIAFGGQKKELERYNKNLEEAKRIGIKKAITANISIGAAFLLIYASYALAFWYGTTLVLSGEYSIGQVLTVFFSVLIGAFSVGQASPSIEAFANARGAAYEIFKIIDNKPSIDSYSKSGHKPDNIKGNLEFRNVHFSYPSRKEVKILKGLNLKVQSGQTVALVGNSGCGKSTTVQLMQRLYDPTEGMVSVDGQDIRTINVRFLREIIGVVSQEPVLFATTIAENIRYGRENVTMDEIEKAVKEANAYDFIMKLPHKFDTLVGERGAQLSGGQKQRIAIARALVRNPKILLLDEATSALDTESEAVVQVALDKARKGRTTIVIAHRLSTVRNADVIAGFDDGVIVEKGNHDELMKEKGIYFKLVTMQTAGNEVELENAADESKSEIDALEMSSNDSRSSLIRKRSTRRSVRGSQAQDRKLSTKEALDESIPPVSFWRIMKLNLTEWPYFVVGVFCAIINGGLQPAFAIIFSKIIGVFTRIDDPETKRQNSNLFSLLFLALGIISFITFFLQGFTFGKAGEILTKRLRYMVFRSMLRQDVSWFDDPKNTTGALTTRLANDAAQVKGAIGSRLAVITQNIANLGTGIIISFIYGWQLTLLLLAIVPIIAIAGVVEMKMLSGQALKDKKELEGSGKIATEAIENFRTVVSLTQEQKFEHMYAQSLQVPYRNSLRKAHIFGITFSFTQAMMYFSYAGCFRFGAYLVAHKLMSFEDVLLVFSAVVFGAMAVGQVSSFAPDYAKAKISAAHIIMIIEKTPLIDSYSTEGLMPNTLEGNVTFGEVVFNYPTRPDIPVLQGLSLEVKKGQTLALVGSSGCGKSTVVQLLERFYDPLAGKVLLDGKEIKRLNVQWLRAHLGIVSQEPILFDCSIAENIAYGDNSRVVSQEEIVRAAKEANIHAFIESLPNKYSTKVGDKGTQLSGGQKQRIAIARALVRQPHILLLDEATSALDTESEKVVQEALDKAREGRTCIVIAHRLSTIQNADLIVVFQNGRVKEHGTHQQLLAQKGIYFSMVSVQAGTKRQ

IC50 [2] [nM]	SMILES	inhibition of [3H]-methotrexate uptake in membrane vesicles [1]
	C#Cc1cccc(Nc2ncnc3cc(OCCOC)c(OCCOC)cc23)c1 [erlotinib]	inhibitory effect of lapatinib on methotrexate transport by ABCG2 membrane vesicles is comparable to that of erlotinib and FTC
2800 ± 600	CS(=O)(=O)CCNCc1ccc(-c2ccc3ncnc(Nc4ccc(OCc5cccc(F)c5)c(Cl)c4)c3c2)o1 [lapatinib, N-{3-chloro-4-[(3-fluorobenzyl)oxy]phenyl}-6-[5-({[2-(methylsulfonyl)ethyl]amino}methyl)-2-furyl]-4-quinazolinamine]	
